The results in this text go back to ChEMBL document CHEMBL6120945, “Peptidomimetic Analogues Act as Effective Inhibitors against SARS-CoV-2 by Blocking the Function of Cathepsin L” (J Med Chem, 2024).

Activity calls are given as the source filed them. The rule behind the calls is not given here.

As a reminder, the IC50 is the concentration that inhibits the measured activity by half. Usually EC50 stands for the concentration needed to bring the measured effect to its halfway point. Broadly, the CC50 is the concentration giving 50% cytotoxicity. Usually inhibition stands for the percentage by which the read-out fell short of the control. As usually defined, the Ki is the equilibrium dissociation constant of an inhibitor or competing ligand from its target.

The nature of data set [1]: Inhibition of human recombinant Cathepsin L-like protease using Z-FR-AMC as substrate preincubated for 30 mins followed by substrate addition and measured after 1.5 hrs by fluorescence based analysis.
The subject of data set [2] is Vero E6. Description: Binding affinity to Cathepsin L-like protease in african green monkey Vero E6 cells incubated for 2 hrs by mass spectrometric analysis. It is filed as cell-based. Particulars: Chlorocebus aethiops.
Data set [3] has as its system Vero E6. Nature of the data set: Binding affinity to Cathepsin L-like protease in african green monkey Vero E6 cells incubated for 2 hrs by Western blot analysis. It is filed as cell-based. Particulars: Chlorocebus aethiops. Background: A western blot detects proteins with antibodies after separation by electrophoresis.
Data set [4] can be described thus: Inhibition of recombinant Cathepsin L-like protease in african green monkey Vero E6 cells incubated for 2 hrs by pull down assay. It is filed as cell-based, Chlorocebus aethiops.
Data set [5] is described as follows: Inhibition of human recombinant Cathepsin L-like protease using Z-FR-AMC as substrate at 10 uM preincubated for 30 mins followed by substrate addition and measured after 1.5 hrs by […].
For data set [6], the system named is SARS-CoV-2. Description: microbe, parasite or virus in culture. Particulars: Severe acute respiratory syndrome coronavirus 2, WIV04, Vero C1008.
Description: Antiviral activity against SARS-CoV-2 WIV04 infected in African green monkey Vero E6 pre-infected with cells for 1 hr followed by compound treatment and measured after 24 hrs by qRT-PCR analysis
Data set [7] has as its target Replicase polyprotein 1ab (Severe acute respiratory syndrome coronavirus 2, UniProt P0DTD1). Nature of the data set: Inhibition of recombinant SARS-CoV-2 3CLpro using MCA-AVLQSGFR-Lys(Dnp)-Lys-NH2 as substrate incubated for 1.5 hrs by fluorescence based analysis.
Data set [8] in a line: Cytotoxicity against african green monkey Vero E6 cells assessed as cell viability incubated for 48 hrs by CCK-8 assay. Type of data set: toxicity, cell-based, Vero C1008. As to conditions: chlorocebus sabaeus.
For data set [9], the species on record is Homo sapiens. Description: Inhibition of human recombinant Cathepsin L-like protease using Z-FR-AMC as substrate at 1 uM preincubated for 30 mins followed by substrate addition and measured after 1.5 hrs by fluorescence based analysis. Particulars: time 2.0 hrs.
Data set [10] concerns SARS-CoV-2. It is filed as functional, organism-based. Particulars: Severe acute respiratory syndrome coronavirus 2; Vero E6; time 12.0 hrs.
Data set [11] concerns the target Trypsin (Homo sapiens) (UniProt P07477+P07478+P35030). Description: Inhibition of human trypsin at 10 uM relative to control. Type of data set: protein assay.
Data set [12] addresses T1, Cathepsin L2 (Homo sapiens) (UniProt O60911).
T1 sequence (whole entry): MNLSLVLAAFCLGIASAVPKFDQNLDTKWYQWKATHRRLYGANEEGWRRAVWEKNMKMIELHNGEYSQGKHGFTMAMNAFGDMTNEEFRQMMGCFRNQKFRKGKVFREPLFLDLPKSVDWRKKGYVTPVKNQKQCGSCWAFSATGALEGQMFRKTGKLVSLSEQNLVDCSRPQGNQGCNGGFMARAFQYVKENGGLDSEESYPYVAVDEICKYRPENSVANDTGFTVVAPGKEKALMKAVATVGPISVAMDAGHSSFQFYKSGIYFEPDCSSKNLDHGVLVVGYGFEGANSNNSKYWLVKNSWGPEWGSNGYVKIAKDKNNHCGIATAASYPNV
Description: Inhibition of Cathepsin V (unknown origin) at 10 uM relative to control.

Data set [13] has as its target Chymotrypsin (Homo sapiens) (UniProt Q99895+P17538+P40313+Q6GPI1). Nature of the data set: Inhibition of human Chymotrypsin at 10 uM relative to control. It is filed as protein assay.
The target of data set [14] is T2, Cathepsin B (Homo sapiens, UniProt P07858). Description: Inhibition of Cathepsin B (unknown origin) at 10 uM relative to control.
Data set [15] has as its system Severe acute respiratory syndrome coronavirus 2. Description: Inhibition of recombinant SARS-Cov-2 Cathepsin L-like protease by LC-MS/MS analysis.
Data set [16] deals with Replicase polyprotein 1ab (Severe acute respiratory syndrome coronavirus 2) (UniProt P0DTD1). Nature of the data set: Inhibition of recombinant SARS-CoV-2 3CLpro using MCA-AVLQSGFR-Lys(Dnp)-Lys-NH2 as substrate at 10 uM incubated for 1.5 hrs by fluorescence based analysis.
In data set [17] the test system is Vero E6. Description: Inhibition of Procathepsin L in african green monkey Vero E6 cells by LC-MS/MS analysis. Type of data set: cell-based. Particulars: Chlorocebus aethiops.
The species entered for data set [18] is Homo sapiens. Description: Inhibition of human recombinant Cathepsin L-like protease using Z-FR-AMC as substrate at 10 uM preincubated for 30 mins followed by substrate addition and measured after 1.5 hrs by fluorescence based analysis. Particulars: time 2.0 hrs.
The target of data set [19] is T3, Cathepsin L2 (Homo sapiens, UniProt O60911).
T3 sequence (O60911 whole entry): T1 sequence (whole entry)
Description: Binding affinity to Cathepsin V (unknown origin) assessed as inhibition constant by Morrison equation based analysis.

The target of data set [20] is Transmembrane protease serine 2 (Homo sapiens) (UniProt O15393). Nature of the data set: Inhibition of human recombinant TMPRSS2 using Boc-QAR-AMC as substrate at 10 uM preincubated for 30 mins followed by substrate addition and measured after 1.5 hrs by fluorescence based analysis. As to conditions: time 2.0 hrs.
Chain of Transmembrane protease serine 2 (Homo sapiens) (O15393 1-255 limits assumed): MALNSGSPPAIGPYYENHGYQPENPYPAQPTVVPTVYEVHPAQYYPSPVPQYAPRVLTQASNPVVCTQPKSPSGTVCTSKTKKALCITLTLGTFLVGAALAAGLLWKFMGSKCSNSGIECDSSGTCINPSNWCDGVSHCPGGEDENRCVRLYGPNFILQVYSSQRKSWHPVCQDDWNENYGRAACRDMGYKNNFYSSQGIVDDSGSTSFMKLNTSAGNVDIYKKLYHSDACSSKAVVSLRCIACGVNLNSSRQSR
Chain of Transmembrane protease serine 2 (Homo sapiens) (O15393 256-492 limits assumed): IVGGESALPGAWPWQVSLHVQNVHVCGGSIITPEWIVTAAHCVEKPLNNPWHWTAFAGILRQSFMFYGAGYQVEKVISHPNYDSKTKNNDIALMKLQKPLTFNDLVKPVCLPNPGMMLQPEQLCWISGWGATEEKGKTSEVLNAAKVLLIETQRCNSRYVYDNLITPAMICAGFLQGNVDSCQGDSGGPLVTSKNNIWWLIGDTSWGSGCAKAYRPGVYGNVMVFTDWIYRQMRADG
A short description of data set [21]: Binding affinity to human recombinant Cathepsin L-like protease using Z-FR-AMC as substrate assessed as inhibition constant preincubated for 30 mins followed by substrate addition and measured after 1 hr by Morrison equation based analysis.
The target in data set [22] is T2, Cathepsin B. Description: Binding affinity to Cathepsin B (unknown origin) assessed as inhibition constant by Morrison equation based analysis.
The target of data set [23] is Transmembrane protease serine 2 (Homo sapiens) (UniProt O15393). Description: Inhibition of human recombinant TMPRSS2 using Boc-QAR-AMC as substrate at 10 uM preincubated for 30 mins followed by substrate addition and measured after 1.5 hrs by fluorescence based analysis relative to control. As to conditions: time 2.0 hrs.
The target of data set [24] is Replicase polyprotein 1ab (Severe acute respiratory syndrome coronavirus 2) (UniProt P0DTD1). Nature of the data set: Inhibition of SARS-CoV2 PLpro using Z-RLRGG-AMC as substrate at 10 uM preincubated for 30 mins followed by substrate addition and measured after 1.5 hrs by fluorescence based analysis. As to conditions: time 2.0 hrs.

On to `C#CCCCCOc1ccc(/C=C/C(=O)N[C@@H](CC(C)C)C(=O)N[C@H](C=O)Cc2ccccc2)cc1`, for which the half-maximal inhibitory concentration (IC50) in data set [1] was determined as 40.8 nM. Further, the outcome in data set [2] and in data set [3] was Active. For the same compound, the EC50 in data set [4] stood at 6.21 µM.

Regarding `O=C(N[C@@H](Cc1cccc(F)c1)C(=O)N[C@@H](Cc1ccccc1)C(=O)CCl)c1cccc2ccccc12`, in data set [5], the concentration for half-maximal inhibition (IC50) was determined as 1.34 nM.

For the compound `O=C(N[C@@H](Cc1ccc(F)cc1)C(=O)N[C@@H](Cc1ccccc1)C(=O)CCl)c1ccc2[nH]ccc2c1`, the concentration for a half-maximal effect (EC50) in [6] amounted to 410 nM. In [5], the concentration for half-maximal inhibition (IC50) is 0.56 nM.

For `C#CCCCCOc1ccc(/C=C/C(=O)N[C@@H](CC(C)C)C(=O)N[C@@H](Cc2ccccc2)C(=O)OC)cc1`, in data set [7], the IC50 was > 10 µM. Further, in data set [8], the CC50 at 48 h is > 100 µM. Moreover, the EC50 in data set [6] is > 100000 nM.

In the case of `O=C(N[C@@H](Cc1ccccc1)C(=O)N[C@@H](Cc1ccccc1)C(=O)CCl)c1cccc2ccccc12`, the concentration giving a half-maximal response (EC50) in data set [6] came out at 400 nM. For the same compound, in data set [5], the IC50 is 0.41 nM.

Consider `CC(C)C[C@H](NC(=O)/C=C/c1ccccc1)C(=O)N[C@H](C=O)C[C@@H]1CCNC1=O`, for which the 50% cytotoxic concentration (CC50) at 48 h in data set [8] is > 100 µM.

Take `O=C(N[C@@H](Cc1cccc(F)c1)C(=O)N[C@@H](Cc1ccccc1)C(=O)CCl)c1ccc2[nH]ccc2c1`: in data set [6], the EC50 was found to be 1750 nM. The IC50 in [5] amounted to 0.72 nM.

Turning to `O=C(N[C@@H](Cc1ccccc1)C(=O)N[C@@H](Cc1ccccc1)C(=O)CCl)c1ccc2[nH]ccc2c1`, the half-inhibitory concentration (IC50) in data set [5] was found to be 0.8 nM.

Turning to `CC(C)C[C@@H](NC(=O)/C=C/c1ccccc1)C(=O)N[C@H](C=O)Cc1ccccc1`, the half-maximal inhibitory concentration (IC50) in data set [7] was > 10 µM; in data set [1], > 1000 nM. Besides, in data set [9], the inhibition entry was “inactive”.

`CC(C)C[C@H](NC(=O)/C=C/c1ccccc1)C(=O)N[C@H](C=O)C[C@@H]1CCCNC1=O`: the 50% cytotoxic concentration (CC50) at 48 h in [8] is > 100 µM. Moreover, the concentration giving a half-maximal response (EC50) in data set [6] amounted to 1510 nM.

Consider `O=C(N[C@@H](Cc1ccc(F)cc1)C(=O)N[C@@H](Cc1ccccc1)C(=O)CCl)c1cccc2ccccc12`, for which the result in data set [10] was Active. The inhibition result in data set [11], in data set [12], in [13] and in data set [14] was “inactive” each time. In data set [6], the concentration for a half-maximal effect (EC50) was determined as 260 nM. For the same compound, in data set [5], the 50% inhibitory concentration (IC50) was determined as 0.27 nM.

For the compound `COC(=O)[C@H](Cc1ccccc1)NC(=O)[C@H](CC(C)C)NC(=O)/C=C/c1ccccc1`, in data set [7], the IC50 is > 10 µM. In data set [8], the CC50 at 48 h is > 100 µM. For the same compound, the EC50 in data set [6] is > 100000 nM.

In the case of `CC(C)C[C@H](NC(=O)c1ccc([N+](=O)[O-])cc1)C(=O)N[C@H](C=O)Cc1ccccc1`, the results for the IC50 in data set [7] and in data set [1] were > 10 µM and 8.19 nM, respectively.

Regarding `CC(C)(C)[C@H](NC(=O)/C=C/c1ccccc1)C(=O)N[C@H](C=O)Cc1ccccc1`, the 50% inhibitory concentration (IC50) was > 10 µM in data set [7] and 182 nM in data set [1].

Regarding `CC(C)C[C@H](NC(=O)/C=C/c1ccccc1)C(=O)N[C@H](C=O)Cc1ccccc1`, the half-inhibitory concentration (IC50) in [7] was > 10 µM; in data set [1] it was 22.6 nM. In data set [10], the outcome was Active. Also, the inhibition result in data set [15], in [17] and in data set [18] was “Active” each time. For the same compound, the inhibition entry in data set [11], in data set [12], in data set [13], in [14], in data set [16] and in data set [20] was “inactive” in each case. The inhibition result in data set [24] is “inactive”. The CC50 at 48 h in data set [8] is > 100 µM. In addition, the results for the inhibition constant (Ki) in [19], in [21] and in [22] were 2.25 nM, 1.31 nM and 40.1 nM, respectively. For the same compound, in data set [6], it took 310 nM to reach a half-maximal effect (EC50). In data set [23], the inhibition turned out to be 100%.

In the case of `CC(C)C[C@H](NC(=O)C1CCCCC1)C(=O)N[C@H](C=O)Cc1ccccc1`, the half-maximal inhibitory concentration (IC50) in data set [7] was > 10 µM; in [1], 6.06 nM.

Regarding `CC(C)C[C@H](NC(=O)c1ccc(Cl)cc1)C(=O)N[C@H](C=O)Cc1ccccc1`, the IC50 in [7] is > 10 µM; in data set [1], 9.47 nM.

In the case of `CC(C)C[C@H](NC(=O)/C=C/c1ccc(C(F)(F)F)cc1)C(=O)N[C@H](C=O)Cc1ccccc1`, the values for the IC50 in data set [7] and in data set [1] were > 10 µM and 75.8 nM, respectively.
